# Molecular target: PSMA (Homo sapiens, UniProt Q04609)
# Assay: PSMA binding, fluorescence polarization assay
# Conditions: as shown in Table 1
# Procedure: PSMA binding was measured using the fluorescence polarization assay methodology described in Shen et al (2013) PLOS ONE 8(7), […] and PSMA enzyme inhibition was measured using the methodology described in WO 2009/070302.
# The peptide ligands of the invention were tested in the above mentioned PSMA binding and enzyme inhibition assays and the results are shown in Table 1: […]
# PSMA, sequence (Q04609 whole entry): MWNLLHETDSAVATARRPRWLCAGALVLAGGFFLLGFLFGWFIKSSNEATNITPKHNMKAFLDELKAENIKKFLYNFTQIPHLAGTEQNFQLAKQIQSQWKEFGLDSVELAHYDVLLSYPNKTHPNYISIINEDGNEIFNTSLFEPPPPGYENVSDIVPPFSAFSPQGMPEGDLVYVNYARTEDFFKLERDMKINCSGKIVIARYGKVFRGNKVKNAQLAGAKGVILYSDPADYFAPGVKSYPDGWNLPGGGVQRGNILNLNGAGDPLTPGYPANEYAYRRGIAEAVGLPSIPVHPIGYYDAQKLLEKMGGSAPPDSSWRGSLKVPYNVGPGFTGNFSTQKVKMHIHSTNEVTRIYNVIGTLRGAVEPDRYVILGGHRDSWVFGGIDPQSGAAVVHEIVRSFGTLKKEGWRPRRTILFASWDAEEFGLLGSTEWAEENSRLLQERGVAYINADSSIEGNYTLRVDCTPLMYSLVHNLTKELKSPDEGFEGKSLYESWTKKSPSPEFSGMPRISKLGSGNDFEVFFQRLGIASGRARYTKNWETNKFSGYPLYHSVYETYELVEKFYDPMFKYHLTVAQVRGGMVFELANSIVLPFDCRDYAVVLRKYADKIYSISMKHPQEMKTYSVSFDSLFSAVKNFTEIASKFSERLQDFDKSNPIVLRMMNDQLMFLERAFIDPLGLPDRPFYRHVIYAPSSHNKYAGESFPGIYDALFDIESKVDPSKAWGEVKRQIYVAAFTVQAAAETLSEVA
row,Substance,PSMA binding (statement in words)
1,EVCWDCFMMEDGTCA [21-31-04-T01-N001],superior PSMA binding
2,Ac-(D-E)VCWDCFM(Nle)EDGTCA-Sar6-(D-K) [21-31-04-T01-N009],superior PSMA binding
3,FCSECYMMEDGTCA [21-31-11-T01-N001],superior PSMA binding
4,LCMECYMMEDGTCA [21-31-12-T01-N001],superior PSMA binding

# From patent US12377155B2, “Bicyclic peptide ligands specific for PSMA” (BicycleRD Limited, priority 2018, dated 2025)
